Reference: patent US20220280579A1, “Formulations for Prevention or Reduction of C. Difficile Infections” (priority 2019, published 2022)
Several values for one entry are separate records, joined by “and”; a condition that tells them apart may be missing. Identical values can stand only once.

System: CD strain 630
Assay: Example 7: Holloway model of CDI, GlcNAc or glucosamine in drinking water
Settings: for Ethanol resistant CFU, CFU/g faeces: individual mice

Water consumption: Daily consumption per mouse (20 mg/ml in drinking water) [mL] | Water consumption: Daily consumption per mouse (50 mg/ml in drinking water) [mL] | Water consumption: Daily consumption per mouse (100 mg/ml in drinking water) [mL] | Structure (SMILES) | CD colonisation (mouse, in vivo) | CD infections (CDI) in mice (mouse, in vivo) | Ethanol resistant CFU, CFU/g faeces (20 mg/ml in drinking water, hydrochloride) | Ethanol resistant CFU, CFU/g faeces (50 mg/ml in drinking water) [CFU/g faeces] | Ethanol resistant CFU, CFU/g faeces (100 mg/ml in drinking water, hydrochloride) | CD colonisation (levels as low as 20 mg/ml in drinking water, summary in words) | CD infections (CDI) in mice (water containing 20 mg/ml, conclusion in words)
– | – | – | CC(=O)N[C@H]1C(O)O[C@H](CO)[C@@H](O)[C@@H]1O (stereo partly shown) [GlcNAc, N-acetyl-glucosamine] | could suppress CD colonisation | prevented CD infections | – | – | – | – | –
4.2 | 2.8 | 1 | Cl.N[C@H]1C(O)O[C@H](CO)[C@@H](O)[C@@H]1O (stereo partly shown) [Glucosamine, Glucosamine hydrochloride] | – | – | 0.00E+00 CFU/g faeces (5×) and 1.90E+06 CFU/g faeces | 0.00E+00 | 0.00E+00 CFU/g faeces (4×) and 1.70E+05 CFU/g faeces and 8.00E+04 CFU/g faeces | could suppress CD colonisation | prevented CD infections
